# Test results as given in BindingDB's records for PubMed 10604951 (University of Colorado, 2000).
# Biological target: Glutamate receptor ionotropic, NMDA 1 (Rattus norvegicus, UniProt P35439)
row,Ki,SMILES
1,> 10 µM,"NC(=O)N1c2ccccc2C=Cc2ccccc21 [5H-dibenzo[b,f]azepine-5-carboxamide]"
2,> 10 µM,COC(=O)c1cc(NC(=O)N(c2ccccc2)c2ccccc2)c2c(Cl)cc(Cl)cc2n1 [DCUK-Ome]
3,> 10 µM,O=C(O)c1cc(NC(=O)N(c2ccccc2)c2ccccc2)c2c(Cl)cc(Cl)cc2n1 [DCUKA]
